This passage reports stability and tmax results from patent US5254728A, “Complexes containing S(+)-phenyl alkanoic acids and α-hydroxyalkanoic” (priority 1990, dated 1993).

For data set [1] the following is noted: pH 9.5; cited from earlier work.
For data set [2] the following is noted: in vivo.

On to `CC(O)C(=O)O` (centres unmarked) [lactic acid], for which the stability entry in data set [1] is “not being stable”. Compound “S(+)-ibuprofen-L-(+)-lactic acid complex” displayed a tmax in data set [2] of 20 min.
